Experimental data published in PMC10892375, “Determination of the Cannabinoid CB1 Receptor’s Positive Allosteric Modulator Binding Site through Mutagenesis Studies” (Pharmaceuticals, 2024).

Legend:
Type in all cases: cell-based
[1] = target: T1, hCB1 mutant R148A^12.51 (Homo sapiens, UniProt P21554, R148A); test: pIRES G protein dissociation BRET assay, R148A mutant; conditions: for G protein dissociation, AUC of 10 μM compound (maximal response): 10 μM ligand alone; for Increase in the potency of CP55940-induced G protein dissociation: 10 μM allosteric ligand
T1 construct: expressed in transfected cells; host or cells: HEK293
Description: (§1) Mutagenesis studies using the pIRES G protein dissociation assay were performed using human embryonic kidney 293 (HEK293) wild-type cells transiently transfected with pplss-3HA-hCB1 [31] or modified receptor. All cells were cultured in Dulbecco’s Modified Eagle’s Medium (DMEM) supplemented with 10% fetal bovine serum (FBS), grown in […] vented-cap flasks, and maintained in a 37° C incubator at 5% CO2.
(§2) Mutants of pplss-3HA-hCB1 (WT, pEF-V4-HisA (pEF4a) construct) were generated using a modified QuikChange® (Stratagene, San Diego, CA, USA) site-directed mutagenesis approach using KAPA HiFi Hotstart Polymerase (KAPA Biosystems, Roche, Basel, Switzerland). Briefly, single-stranded primers used to modify one or two base pairs within the target amino acid using PCR were purchased from Integrated DNA Technologies (IDT, Coralville, IA, USA). All pplss-hCB1 mutants were generated using the pplss-3HA-hCB1 pEF4a as parental DNA. PCR products were generated using recommended cycling conditions and treated with Dpn1 (New England Biolabs, Ipswich, MA, USA) overnight at 37° C to digest methylated parental DNA. PCR products were electrophoresed and run on an agarose gel (1% (w.v^−1) agarose, HydraGene, Piscataway, NJ, USA) containing 0.25 μg/mL ethidium bromide (Sigma-Aldrich, St. Louis, MO, USA). Gels were run in 40 mM TRIS-acetate buffer containing […] (pH 8.3) at 100 V for 30 min, maximum current and included a 1kb+ DNA ladder (Invitrogen, Thermo Fisher Scientific, Carlsbad, CA, USA) for reference. Gels were imaged using an UVTech Alliance Q9 Mini transilluminator (UVTech Alliance, Cambridge, UK). Digested products were then used to transform NEB 5α competent E. coli cells in accordance with manufacturer’s instructions. Briefly, transformed PCR products were grown overnight on 8.5 mL Luria Broth agar plates (containing 100 μg/mL ampicillin) at 37° C. Single bacterial colonies were picked and inoculated in Luria Broth (containing 100 μg/mL ampicillin) and grown overnight in a shaking incubator at 37° C. Plasmids were then harvested and purified using a Qiagen miniprep kit (Qiagen, Hilden, Germany) and validated using sequencing (Genetics Analysis Service, University of Otago, Dunedin, New Zealand).
(§3) Dissociation of the G protein heterotrimer, specifically Gαi1, Gβ1, and Gγ2, was investigated using a bioluminescence resonance energy transfer (BRET) assay with the pIRES biosensor first described by and adapted by.
(§4) Briefly, 3 × 10^6 WT HEK293 cells were seeded into 10 cm culture dishes (Corning, Corning, NY, USA; one dish for the control receptor and one for each modified receptor) and incubated at 37 °C for 24 h to gain 50–60% confluency. Culture medium was then replaced and transfection mixtures containing 3 μg pIRES vector and 1 μg receptor (either pplss-hCB1 or modified receptor) were prepared (4 μg total DNA). Plasmids were initially diluted in sterile Milli-Q water before being diluted in OptiMEM reduced serum medium (Thermo Fisher Scientific, Waltham, MA, USA) and combined with […] polyethylenimine (PEI)-max (1:9 DNA:PEI-max ratio) and incubated at room temperature for 20 min. Transfection mixtures were then added to cells via dropwise addition, and cells were incubated at 37 °C for 24 h. Transfected cells were lifted and plated at 50,000 cells/well into poly-d-lysine (PDL; Sigma-Aldrich) coated white 96-well CulturPlates (PerkinElmer, Waltham, MA, USA) and incubated for a further 24 h at 37 °C.
(§5) To assay, the culture medium was aspirated and cells were washed with phosphate buffered saline (PBS) and replaced with BRET assay medium (phenol red free DMEM containing 25 mM HEPES and supplemented with 1 mg/mL bovine serum albumin; BSA, MP Biomedicals, Auckland, New Zealand) for 30 min prior to drug addition (serum starve). Drugs were prepared at 10 × concentration in BRET assay medium, combined in a polypropylene V-bottom plate, and incubated at 37° C prior to drug stimulation.

[2] = target: T2, hCB1 mutant I245A^4.54 (Homo sapiens, UniProt P21554, I245A); test: pIRES G protein dissociation BRET assay, I245A mutant; conditions: for G protein dissociation, AUC of 10 μM compound (maximal response): 10 μM ligand alone
T2 construct: expressed in transfected cells; host or cells: HEK293
Description: as §1, §2, §3, §4, §5

[3] = target: T3, hCB1 mutant F191A^3.27 (Homo sapiens, UniProt P21554, F191A); test: pIRES G protein dissociation BRET assay, F191A mutant; conditions: for G protein dissociation, AUC of 10 μM compound (maximal response): 10 μM ligand alone; for Allosteric agonism: G protein dissociation in the absence of an orthosteric ligand: 10 μM, result in words
T3 construct: expressed in transfected cells; host or cells: HEK293
Description: as §1, §2, §3, §4, §5

[4] = target: T4, hCB1 mutant H154A^2.41 (Homo sapiens, UniProt P21554, H154A); test: pIRES G protein dissociation BRET assay, H154A mutant; conditions: for G protein dissociation, AUC of 10 μM compound (maximal response): 10 μM ligand alone
T4 construct: expressed in transfected cells; host or cells: HEK293
Description: as §1, §2, §3, §4, §5

[5] = target: T5, hCB1 mutant K232A^4.41 (Homo sapiens, UniProt P21554, K232A); test: pIRES G protein dissociation BRET assay, K232A mutant; conditions: for G protein dissociation, AUC of 10 μM compound (maximal response): 10 μM ligand alone
T5 construct: expressed in transfected cells; host or cells: HEK293
Description: as §1, §2, §3, §4, §5

[6] = target: T6, hCB1 mutant F289A^5.53 (Homo sapiens, UniProt P21554, F289A); test: pIRES G protein dissociation BRET assay, F289A mutant; conditions: for G protein dissociation, AUC of 10 μM compound (maximal response): 10 μM ligand alone
T6 construct: expressed in transfected cells; host or cells: HEK293
Description: as §1, §2, §3, §4, §5

[7] = target: T7, hCB1 mutant F408A^8.54 (Homo sapiens, UniProt P21554, F408A); test: pIRES G protein dissociation BRET assay, F408A mutant; conditions: for G protein dissociation, AUC of 10 μM compound (maximal response): 10 μM ligand alone
T7 construct: expressed in transfected cells; host or cells: HEK293
Description: as §1, §2, §3, §4, §5

[8] = 10 μM CP55940 in the presence of 10 μM ZCZ011
[9] = in the presence of 10 μM GAT228
[10] = in the presence of 10 μM GAT229
[11] = top of the curve (maximal response)

T4 sequence (P21554 whole entry H154A): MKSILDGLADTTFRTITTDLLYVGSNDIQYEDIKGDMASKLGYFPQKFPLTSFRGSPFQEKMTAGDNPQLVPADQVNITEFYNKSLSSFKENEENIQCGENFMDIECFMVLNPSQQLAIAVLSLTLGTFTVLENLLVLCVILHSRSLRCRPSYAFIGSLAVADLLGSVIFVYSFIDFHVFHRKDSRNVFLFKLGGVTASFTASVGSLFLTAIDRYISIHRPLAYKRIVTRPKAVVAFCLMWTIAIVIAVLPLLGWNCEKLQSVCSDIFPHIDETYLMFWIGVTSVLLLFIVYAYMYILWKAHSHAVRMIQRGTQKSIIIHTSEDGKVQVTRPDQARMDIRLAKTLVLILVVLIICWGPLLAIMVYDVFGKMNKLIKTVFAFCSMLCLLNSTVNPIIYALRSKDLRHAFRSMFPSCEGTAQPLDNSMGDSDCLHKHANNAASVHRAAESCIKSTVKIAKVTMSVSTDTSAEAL
T6 sequence (P21554 whole entry F289A): as the sequence (P21554 whole entry H154A) above, with A154H, F289A counted along it
T5 sequence (P21554 whole entry K232A): as the sequence (P21554 whole entry H154A) above, with A154H, K232A counted along it
T2 sequence (P21554 whole entry I245A): as the sequence (P21554 whole entry H154A) above, with A154H, I245A counted along it
T1 sequence (P21554 whole entry R148A): as the sequence (P21554 whole entry H154A) above, with R148A, A154H counted along it
T7 sequence (P21554 whole entry F408A): as the sequence (P21554 whole entry H154A) above, with A154H, F408A counted along it
T3 sequence (P21554 whole entry F191A): as the sequence (P21554 whole entry H154A) above, with A154H, F191A counted along it

CCCCCCC(C)(C)c1ccc([C@@H]2C[C@H](O)CC[C@H]2CCCO)c(O)c1 [CP55940]
G protein dissociation, AUC, 10 μM CP55940 + 10 μM ZCZ011 [1, 8]: −237.3 ± 11.6
EMAX, CP55940 + 10 μM GAT228 [1, 9]: −218.2 ± 8.5 ∆BRET.sec
EMAX, CP55940 + 10 μM GAT229 [1, 10]: −243.9 ± 5.4 ∆BRET.sec
EMAX, CP55940 Alone [1, 11]: −175.6 ± 11.4 ∆BRET.sec
G protein dissociation, AUC, 10 μM CP55940 + 10 μM ZCZ011 [2, 8]: −183.2 ± 7.2
EMAX, CP55940 + 10 μM GAT228 [2, 9]: −163.7 ± 8.2 ∆BRET.sec
EMAX, CP55940 + 10 μM GAT229 [2, 10]: −182.9 ± 7.0 ∆BRET.sec
EMAX, CP55940 Alone [2, 11]: −150.1 ± 9.8 ∆BRET.sec
G protein dissociation, AUC, 10 μM CP55940 + 10 μM ZCZ011 [3, 8]: −134.7 ± 12.4
G protein dissociation, AUC of 10 μM compound (maximal response) [3]: −117.8 ± 7.5
EMAX, CP55940 + 10 μM GAT228 [3, 9]: −123.9 ± 7.4 ∆BRET.sec
EMAX, CP55940 + 10 μM GAT229 [3, 10]: −119.1 ± 7.8 ∆BRET.sec
EMAX, CP55940 Alone [3, 11]: −117.3 ± 6.1 ∆BRET.sec
G protein dissociation, AUC, 10 μM CP55940 + 10 μM ZCZ011 [4, 8]: −189.5 ± 8.5
EMAX, CP55940 + 10 μM GAT228 [4, 9]: −200.5 ± 11.6 ∆BRET.sec
EMAX, CP55940 + 10 μM GAT229 [4, 10]: −210.6 ± 10.1 ∆BRET.sec
EMAX, CP55940 Alone [4, 11]: −151.8 ± 5.9 ∆BRET.sec
G protein dissociation, AUC, 10 μM CP55940 + 10 μM ZCZ011 [5, 8]: −194.9 ± 7.2
G protein dissociation, AUC of 10 μM compound (maximal response) [5]: −167.7 ± 9.6
EMAX, CP55940 + 10 μM GAT228 [5, 9]: −181.9 ± 8.6 ∆BRET.sec
EMAX, CP55940 + 10 μM GAT229 [5, 10]: −194.9 ± 9.0 ∆BRET.sec
EMAX, CP55940 Alone [5, 11]: −160.6 ± 7.6 ∆BRET.sec
G protein dissociation, AUC, 10 μM CP55940 + 10 μM ZCZ011 [6, 8]: −167.8 ± 6.9
EMAX, CP55940 + 10 μM GAT228 [6, 9]: −156.7 ± 5.3 ∆BRET.sec
EMAX, CP55940 + 10 μM GAT229 [6, 10]: −161.1 ± 6.5 ∆BRET.sec
EMAX, CP55940 Alone [6, 11]: −145.4 ± 5.7 ∆BRET.sec
G protein dissociation, AUC, 10 μM CP55940 + 10 μM ZCZ011 [7, 8]: −159.7 ± 13.4
G protein dissociation, AUC of 10 μM compound (maximal response) [7]: −131.7 ± 10.4
EMAX, CP55940 + 10 μM GAT228 [7, 9]: −148.4 ± 11.4 ∆BRET.sec
EMAX, CP55940 + 10 μM GAT229 [7, 10]: −154.0 ± 14.5 ∆BRET.sec
EMAX, CP55940 Alone [7, 11]: −128.6 ± 12.1 ∆BRET.sec

Cc1ccc2c(C(C[N+](=O)[O-])c3cccs3)c(-c3ccccc3)[nH]c2c1 (stereo not drawn) [ZCZ011, 6-Methyl-3-(2-nitro-1-(thiophen-2-yl)ethyl)-2-phenyl-1 H-indole]
G protein dissociation, AUC of 10 μM compound (maximal response) [1]: −150.1 ± 10.2
G protein dissociation, AUC of 10 μM compound (maximal response) [2]: −130.4 ± 12.9
G protein dissociation, AUC of 10 μM compound (maximal response) [3]: 35.0 ± 8.4
Allosteric agonism: G protein dissociation in the absence of an orthosteric ligand [3]: abolished
G protein dissociation, AUC of 10 μM compound (maximal response) [4]: −129.4 ± 5.1
G protein dissociation, AUC of 10 μM compound (maximal response) [5]: −140.0 ± 7.3
G protein dissociation, AUC of 10 μM compound (maximal response) [6]: −135.5 ± 6.3
G protein dissociation, AUC of 10 μM compound (maximal response) [7]: −116.9 ± 10.1

O=[N+]([O-])C[C@@H](c1ccccc1)c1c(-c2ccccc2)[nH]c2ccccc12 [GAT229]
Increase in the potency of CP55940-induced G protein dissociation [1]: less than 0.5 log units
G protein dissociation, AUC of 10 μM compound (maximal response) [1]: −148.5 ± 7.7
G protein dissociation, AUC of 10 μM compound (maximal response) [2]: −121.6 ± 8.0
G protein dissociation, AUC of 10 μM compound (maximal response) [3]: 22.1 ± 6.4
Allosteric agonism: G protein dissociation in the absence of an orthosteric ligand [3]: abolished
G protein dissociation, AUC of 10 μM compound (maximal response) [4]: −154.6 ± 7.8
G protein dissociation, AUC of 10 μM compound (maximal response) [5]: −134.5 ± 7.9
G protein dissociation, AUC of 10 μM compound (maximal response) [6]: −123.6 ± 5.9
G protein dissociation, AUC of 10 μM compound (maximal response) [7]: −110.0 ± 8.6

O=[N+]([O-])C[C@H](c1ccccc1)c1c(-c2ccccc2)[nH]c2ccccc12 [GAT228]
Increase in the potency of CP55940-induced G protein dissociation [1]: less than 0.5 log units
G protein dissociation, AUC of 10 μM compound (maximal response) [1]: −102.7 ± 11.8
G protein dissociation, AUC of 10 μM compound (maximal response) [2]: −90.3 ± 8.5
G protein dissociation, AUC of 10 μM compound (maximal response) [3]: 19.5 ± 11.9
Allosteric agonism: G protein dissociation in the absence of an orthosteric ligand [3]: abolished
G protein dissociation, AUC of 10 μM compound (maximal response) [4]: −101.6 ± 6.9
G protein dissociation, AUC of 10 μM compound (maximal response) [5]: −94.0 ± 10.5
G protein dissociation, AUC of 10 μM compound (maximal response) [6]: −97.4 ± 7.2
G protein dissociation, AUC of 10 μM compound (maximal response) [7]: −90.3 ± 8.3
